Test results published in patent US20260297042A1, “BIARYLAMIDE DERIVATIVES AND THEIR USE AS PKMYT1 INHIBITORS” (CANCER RESEARCH TECHNOLOGY LIMITED, priority 2023, published 2026).

What was measured:
Human PKMYT1 = biological target: T1, Human PKMYT1 (Homo sapiens, UniProt Q99640); assay: PKMYT1 biochemical ADP-Glo enzymatic assay; conditions: ADP-Glo
T1 construct: Human PKMYT1 75-362 was cloned as a TEV cleavable 6xHis fusion; 6xHis (TEV cleavable) (cleaved yes); made in house; host or cells: bacterial cells
T1 sequence (Q99640 75-362): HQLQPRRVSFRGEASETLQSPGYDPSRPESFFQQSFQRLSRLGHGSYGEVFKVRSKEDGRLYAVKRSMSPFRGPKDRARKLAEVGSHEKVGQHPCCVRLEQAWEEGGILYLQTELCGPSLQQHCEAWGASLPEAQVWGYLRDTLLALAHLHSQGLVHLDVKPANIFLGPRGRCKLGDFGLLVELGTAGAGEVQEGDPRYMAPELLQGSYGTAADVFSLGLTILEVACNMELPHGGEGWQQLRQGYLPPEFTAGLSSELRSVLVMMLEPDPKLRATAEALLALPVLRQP
Method in brief: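 Measures inhibition of PKMYT1 autonomous ATP hydrolysis: bacterially expressed human enzyme (75-362, tag cleaved) at 15 nM with 500 µM ATP for 60 min at 26 °C, then ADP-Glo Max detection. IC50s accepted only when replicates agreed within 3-fold and curve r2 exceeded 0.9.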

WEE1 = biological target: T2, WEE1 (Homo sapiens, UniProt P30291); assay: Selectivity versus WEE1 assay (ADP-Glo enzymatic assay); assay type: biochemical; conditions: for IC50: ADP-Glo; for PKMYT1 vs. WEE1 selectivity: fold difference in selectivity for PKMYT1 over WEE1
T2 construct: purchased Thermo Fisher PR7373A
Method in brief: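 Same format as the PKMYT1 assay: WEE1 at 15 nM final with 30 µM ATP, 60 min at 26° C, ADP-Glo luminescence detection, IC50 by dose-response fitting.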

OVCAR 3 cells = assay: Cancer cell line proliferation assay, ATP-based cell viability (Cell Titre Glow), OVCAR 3 (CCNE1-amplified); conditions: KYSE30 (normal CCNE1) GI50 vs. OVCAR 3 (CCNE1-amplified) GI50
Method in brief: (§1)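 Cells were treated with PKMYT1 inhibitors, then proliferation was assessed with CellTiter-Glo and luminescence read. GI50 values were fitted from the resulting data.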

KYSE-30 cells = assay: Cancer cell line proliferation assay, ATP-based cell viability (Cell Titre Glow), KYSE-30 (normal CCNE1); conditions: Homo sapiens, KYSE-30 cells (normal CCNE1), concentration that achieves 50% cell growth proliferation inhibition, read-out: KYSE30 Gl50
Method in brief: as §1

[1] = biological target: T3, Cellular PKMYT1 Biomarker CDK1 pT14 (Homo sapiens, UniProt Q99640); assay: Inhibition of cellular PKMYT1 biomarker CDK1 pT14 in OVCAR 3 cells (immunoblot); assay type: cell-based; conditions: 20 hours incubation
T3 construct: read-out CDK1 phospho-T14 immunoblot
T3 sequence (Q99640 1-499): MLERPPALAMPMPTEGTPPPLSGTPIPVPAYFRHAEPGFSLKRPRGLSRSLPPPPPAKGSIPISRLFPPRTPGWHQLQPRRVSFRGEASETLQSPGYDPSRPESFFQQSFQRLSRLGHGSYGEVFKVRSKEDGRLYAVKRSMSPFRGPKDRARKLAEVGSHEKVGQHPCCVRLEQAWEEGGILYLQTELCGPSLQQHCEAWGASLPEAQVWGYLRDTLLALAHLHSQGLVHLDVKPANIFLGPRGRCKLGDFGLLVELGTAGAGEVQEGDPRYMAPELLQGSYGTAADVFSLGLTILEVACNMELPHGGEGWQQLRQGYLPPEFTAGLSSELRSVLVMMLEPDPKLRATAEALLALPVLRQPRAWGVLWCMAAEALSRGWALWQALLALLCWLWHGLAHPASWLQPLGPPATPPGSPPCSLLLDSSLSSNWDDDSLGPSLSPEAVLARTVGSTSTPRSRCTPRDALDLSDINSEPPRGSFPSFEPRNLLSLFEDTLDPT
Method in brief: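 Confluent OVCAR 3 cells treated with a compound concentration range for 20 h at 37 °C. Lysates analysed by automated capillary immunoblot for CDK1 phospho-T14, with vinculin, fluorescence detection; IC50 by regression.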

[2] = 15 nM PKMYT1 kinase domain, 500 µM ATP, 60 minutes at 26° C., banded
[3] = 15 nM WEE1, 60 minutes at 26° C., banded
[4] = banded, ">N" = at least in this band but could be higher
[5] = PKMYT1 kinase domain 15 nM, banded values

T2 sequence (P30291 whole entry): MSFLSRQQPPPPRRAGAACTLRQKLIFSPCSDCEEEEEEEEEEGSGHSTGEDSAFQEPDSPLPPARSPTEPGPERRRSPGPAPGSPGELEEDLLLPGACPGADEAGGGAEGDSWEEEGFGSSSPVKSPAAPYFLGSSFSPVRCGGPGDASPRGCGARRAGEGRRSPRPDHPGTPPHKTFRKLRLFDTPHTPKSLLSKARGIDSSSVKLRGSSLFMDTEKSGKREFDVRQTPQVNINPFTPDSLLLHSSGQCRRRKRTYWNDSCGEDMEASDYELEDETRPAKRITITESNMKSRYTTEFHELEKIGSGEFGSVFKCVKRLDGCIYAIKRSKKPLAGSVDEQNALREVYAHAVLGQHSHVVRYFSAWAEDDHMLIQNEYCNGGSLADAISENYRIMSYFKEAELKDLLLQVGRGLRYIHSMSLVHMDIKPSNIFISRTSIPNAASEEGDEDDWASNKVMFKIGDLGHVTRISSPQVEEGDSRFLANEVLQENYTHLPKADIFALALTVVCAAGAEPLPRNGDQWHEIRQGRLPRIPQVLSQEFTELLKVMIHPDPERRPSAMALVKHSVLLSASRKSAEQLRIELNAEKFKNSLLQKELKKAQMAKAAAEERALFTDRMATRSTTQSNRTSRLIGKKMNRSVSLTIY

SMILES	IC50 (Human PKMYT1; [2])	IC50 (WEE1; [3])	PKMYT1 vs. WEE1 selectivity (WEE1; [4])	IC50 [1]	IC50 (Human PKMYT1; [5])	IC50 (WEE1; WEE1 15 nM, banded values)	PKMYT1 vs. WEE1 selectivity (WEE1; banded)	Selectivity ratio KYSE30 Gl50 vs. OVCAR3 Gl50 (OVCAR 3 cells)	GI50 (KYSE-30 cells)
Cc1ccc(O)c(C)c1NC(=O)c1cnc(Nc2cccc(C3CC3)n2)s1 [BAA-409, 2-((6-cyclopropylpyridin-2-yl)amino)-N-(3-hydroxy-2,6-dimethylphenyl)thiazole-5-carboxamide]	–	–	–	< 100 nM	< 50 nM	1000 to 11000 nM	X (100-<1000 fold)	Y (>20 fold)	500 to 5000 nM
Cc1ccc(O)c(C)c1NC(=O)c1cnc(Nc2nc(N3CCOCC3)ccc2Cl)s1 [BAA-410, 2-((3-chloro-6-morpholinopyridin-2-yl)amino)-N-(3-hydroxy-2,6-dimethylphenyl)thiazole-5-carboxamide]	–	–	–	< 100 nM	< 50 nM	1000 to 11000 nM	X (100-<1000 fold)	Y (>20 fold)	500 to 5000 nM
Cc1ccc(O)c(C)c1NC(=O)c1cnc(Nc2nc(N3CCN(C)CC3)ccc2Cl)s1 [BAA-414, 2-((3-chloro-6-(4-methylpiperazin-1-yl)pyridin-2-yl)amino)-N-(3-hydroxy-2,6-dimethylphenyl)thiazole-5-carboxamide]	–	–	–	< 100 nM	< 50 nM	1000 to 11000 nM	X (100-<1000 fold)	Y (>20 fold)	500 to 5000 nM
Cc1ccc(O)c(C)c1NC(=O)c1cnc(Nc2cccc(N(C)C)n2)s1 [BAA-417, 2-((6-(dimethylamino)pyridin-2-yl)amino)-N-(3-hydroxy-2,6-dimethylphenyl)thiazole-5-carboxamide]	–	–	–	100 to 1000 nM	< 50 nM	> 11000 nM	X (100-<1000 fold)	Y (>20 fold)	500 to 5000 nM
COc1ccnc(Nc2ncc(C(=O)Nc3c(C)ccc(O)c3C)s2)c1 [BAA-418, N-(3-hydroxy-2,6-dimethylphenyl)-2-((4-methoxypyridin-2-yl)amino)thiazole-5-carboxamide]	–	–	–	< 100 nM	< 50 nM	1000 to 11000 nM	X (100-<1000 fold)	Y (>20 fold)	500 to 5000 nM
Cc1cc(F)cnc1Nc1ncc(C(=O)Nc2c(C)ccc(O)c2C)s1 [BAA-419, 2-((5-fluoro-3-methylpyridin-2-yl)amino)-N-(3-hydroxy-2,6-dimethylphenyl)thiazole-5-carboxamide]	–	–	–	100 to 1000 nM	< 50 nM	> 11000 nM	Y (1000-5000 fold)	Y (>20 fold)	> 5000 nM
Cc1ccc(F)c(Nc2ncc(C(=O)Nc3c(C)ccc(O)c3C)s2)n1 [BAA-420, 2-((3-fluoro-6-methylpyridin-2-yl)amino)-N-(3-hydroxy-2,6-dimethylphenyl)thiazole-5-carboxamide]	–	–	–	< 100 nM	< 50 nM	> 11000 nM	Y (1000-5000 fold)	Y (>20 fold)	500 to 5000 nM

Now from value to compound, other results behind:

IC50 (Human PKMYT1; [2])	IC50 (WEE1; [3])	PKMYT1 vs. WEE1 selectivity (WEE1; [4])	IC50 [1]	IC50 (Human PKMYT1; [5])	IC50 (WEE1; WEE1 15 nM, banded values)	PKMYT1 vs. WEE1 selectivity (WEE1; banded)	SMILES	Selectivity ratio KYSE30 Gl50 vs. OVCAR3 Gl50 (OVCAR 3 cells)	GI50 (KYSE-30 cells)
< 50 nM	1000 to 11000 nM	X (100-<1000 fold)	< 100 nM	–	–	–	Cc1ccc(O)c(C)c1NC(=O)c1cnc(Nc2cccc(-c3cnn(C)c3)n2)s1 [BAA-390, N-(3-hydroxy-2,6-dimethylphenyl)-2-((6-(1-methyl-1H-pyrazol-4-yl)pyridin-2-yl)amino)thiazole-5-carboxamide]	Y (>20 fold)	500 to 5000 nM
< 50 nM	1000 to 11000 nM	X (100-<1000 fold)	< 100 nM	–	–	–	Cc1cn(-c2cnn(C(C)C)c2)nc1Nc1ncc(C(=O)Nc2c(C)ccc(O)c2C)s1 [BAA-391, N-(3-hydroxy-2,6-dimethylphenyl)-2-((1′-isopropyl-4-methyl-1′H-[1,4′-bipyrazol]-3-yl)amino)thiazole-5-carboxamide]	Y (>20 fold)	500 to 5000 nM
–	–	–	< 100 nM	< 50 nM	1000 to 11000 nM	X (100-<1000 fold)	Cc1cn(-c2cnn(C(F)F)c2)nc1Nc1ncc(C(=O)Nc2c(C)ccc(O)c2C)s1 [BAA-394, 2-((1′-(difluoromethyl)-4-methyl-1′H-[1,4′-bipyrazol]-3-yl)amino)-N-(3-hydroxy-2,6-dimethylphenyl)thiazole-5-carboxamide]	Y (>20 fold)	500 to 5000 nM
–	–	–	< 100 nM	< 50 nM	1000 to 11000 nM	X (100-<1000 fold)	Cc1ccc(-c2cnn(C)c2)nc1Nc1ncc(C(=O)Nc2c(C)ccc(O)c2C)s1 [BAA-396, N-(3-hydroxy-2,6-dimethylphenyl)-2-((3-methyl-6-(1-methyl-1H-pyrazol-4-yl)pyridin-2-yl)amino)thiazole-5-carboxamide]	Y (>20 fold)	500 to 5000 nM
–	–	–	< 100 nM	< 50 nM	1000 to 11000 nM	W (10-<100 fold)	Cc1ccc(O)c(C)c1NC(=O)c1cnc(Nc2cccc(-c3cccnc3)n2)s1 [BAA-397, 2-([2,3′-bipyridin]-6-ylamino)-N-(3-hydroxy-2,6-dimethylphenyl)thiazole-5-carboxamide]	Y (>20 fold)	500 to 5000 nM
–	–	–	< 100 nM	< 50 nM	1000 to 11000 nM	X (100-<1000 fold)	Cc1cn(-c2ccn(C)n2)nc1Nc1ncc(C(=O)Nc2c(C)ccc(O)c2C)s1 [BAA-398, 2-((1′,4-dimethyl-1′H-[1,3′-bipyrazol]-3-yl)amino)-N-(3-hydroxy-2,6-dimethylphenyl)thiazole-5-carboxamide]	Y (>20 fold)	500 to 5000 nM
–	–	–	< 100 nM	< 50 nM	1000 to 11000 nM	W (10-<100 fold)	Cc1ccc(O)c(C)c1NC(=O)c1cnc(Nc2cccc(N(C)CCC#N)n2)s1 [BAA-401, 2-((6-((2-cyanoethyl)(methyl)amino)pyridin-2-yl)amino)-N-(3-hydroxy-2,6-dimethylphenyl)thiazole-5-carboxamide]	Y (>20 fold)	500 to 5000 nM
–	–	–	< 100 nM	< 50 nM	50 to 1000 nM	W (10-<100 fold)	Cc1ccc(O)c(C)c1NC(=O)c1cnc(Nc2cc(N3CCOCC3)ccn2)s1 [BAA-402, N-(3-hydroxy-2,6-dimethylphenyl)-2-((4-morpholinopyridin-2-yl)amino)thiazole-5-carboxamide]	Y (>20 fold)	500 to 5000 nM
–	–	–	< 100 nM	< 50 nM	1000 to 11000 nM	X (100-<1000 fold)	Cc1cccc(Nc2ncc(C(=O)Nc3c(C)ccc(O)c3C)s2)n1 [BAA-407, N-(3-hydroxy-2,6-dimethylphenyl)-2-((6-methylpyridin-2-yl)amino)thiazole-5-carboxamide]	Y (>20 fold)	> 5000 nM
